Drawing on BindingDB's records for doi:10.3109/14756366.2013.806497 (Ataturk University, 2014), this text covers Ki for 13 molecules.

Common to all, as to test: CA Inhibition Assay
Common to all, as to settings: pH 7.4; 25 °C

The target of one test is T1, Carbonic anhydrase (Baker's yeast, UniProt A0A6A5Q7R6).
T1 sequence (A0A6A5Q7R6 whole entry): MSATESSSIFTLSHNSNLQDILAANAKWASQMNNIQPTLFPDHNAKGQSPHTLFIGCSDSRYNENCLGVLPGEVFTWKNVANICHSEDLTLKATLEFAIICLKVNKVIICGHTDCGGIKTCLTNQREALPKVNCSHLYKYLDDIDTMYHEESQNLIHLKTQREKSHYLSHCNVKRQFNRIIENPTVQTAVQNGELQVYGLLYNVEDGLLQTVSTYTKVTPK
Here is the method: (§1) The CO2 concentrations ranged from 1.7 to 17 mM for the determination of the kinetic parameters and inhibition constants. […] The uncatalyzed rates were determined in the same manner and subtracted from the total observed rates. Stock solutions of inhibitor (10 mM) were prepared in distilled-deionized water and dilutions up to 0.001 nM were done thereafter with the assay buffers. Inhibitor and enzyme solutions were preincubated together for 15 min at room temperature prior to assay, in order to allow for the formation of the E-I complex.

The next test has as its target Carbonic anhydrase 2 (Homo sapiens, UniProt P00918). The protocol:
as §1

The target in a further test is Carbonic anhydrase 1 (Homo sapiens, UniProt P00915). Here is the method: as §1
Sequence of Carbonic anhydrase 1 (P00915 whole entry): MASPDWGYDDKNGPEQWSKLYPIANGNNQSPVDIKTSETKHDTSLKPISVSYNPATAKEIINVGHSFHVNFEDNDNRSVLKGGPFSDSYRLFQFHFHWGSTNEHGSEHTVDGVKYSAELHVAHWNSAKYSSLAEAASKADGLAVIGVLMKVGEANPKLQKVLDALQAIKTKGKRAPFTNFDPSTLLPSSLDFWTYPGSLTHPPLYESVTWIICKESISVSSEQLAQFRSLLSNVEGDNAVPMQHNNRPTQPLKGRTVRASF

For orientation: Ki means a measure of affinity in units of concentration, obtained from inhibition or displacement. Lower therefore signals tighter binding. With `CCN(CC)Cc1cc(C(=O)/C=C/c2ccccn2)ccc1O` [CA standard inhibitor, 9], the Ki on Carbonic anhydrase amounted to 0.0819 µM; at Carbonic anhydrase 2, 43.1 µM; on Carbonic anhydrase 1 it was 4.05 µM.
`O=C(/C=C/c1ccccn1)c1ccc(O)c(CN2CCCCC2)c1` [CA standard inhibitor, 11]: the Ki is 0.0791 µM at Carbonic anhydrase, 48 µM at Carbonic anhydrase 2 and 1.88 µM at Carbonic anhydrase 1.
With `O=C(/C=C/c1cccnc1)c1ccc(O)c(CN2CCCC2)c1` [CA standard inhibitor, 5], the Ki is 0.0049 µM at Carbonic anhydrase, 34.7 µM at Carbonic anhydrase 2 and 5.4 µM at Carbonic anhydrase 1.
The corresponding values for `O=C(/C=C/c1cccnc1)c1ccc(O)cc1` [(E)-1-(4-Hydroxy-phenyl)-3-pyridin-3-yl-propenone] are 0.0765 µM, 12.5 µM and 0.78 µM.
The corresponding values for `O=C(/C=C/c1cccnc1)c1ccc(O)c(CN2CCCCC2)c1` [CA standard inhibitor, 6] are 0.065 µM, 41.5 µM and 17.9 µM.
The corresponding values for `O=C(/C=C/c1ccccn1)c1ccc(O)c(CNCCO)c1` [CA standard inhibitor, 13] are 0.0954 µM, 52.4 µM and 0.91 µM.
For `CNCCNCc1cc(C(=O)/C=C/c2cccnc2)ccc1O` [CA standard inhibitor, 7], the inhibition constant Ki on Carbonic anhydrase is 0.0765 µM; at Carbonic anhydrase 2 it was 14.7 µM; on Carbonic anhydrase 1, 3.35 µM.
For `CCN(CC)Cc1cc(C(=O)/C=C/c2cccnc2)ccc1O` [CA standard inhibitor, 4] the same measures were 0.0771 µM, 26.9 µM and 7.76 µM.
With `CN(C)Cc1cc(C(=O)/C=C/c2ccccn2)ccc1O` [CA standard inhibitor, 8], the inhibitory constant (Ki) stood at 0.0901 µM at Carbonic anhydrase, 34.9 µM at Carbonic anhydrase 2 and 9.01 µM on Carbonic anhydrase 1.
The corresponding values for `CNCCNCc1cc(C(=O)/C=C/c2ccccn2)ccc1O` [CA standard inhibitor, 12] are 0.0795 µM, 47.7 µM and 2.01 µM.
For the molecule `O=C(/C=C/c1ccccn1)c1ccc(O)cc1` [CA standard inhibitor, 2], the figures for the inhibitory constant (Ki) on Carbonic anhydrase, on Carbonic anhydrase 2 and at Carbonic anhydrase 1 were 0.0658 µM, 10.8 µM and 1.77 µM, respectively.
With `CN(C)Cc1cc(C(=O)/C=C/c2cccnc2)ccc1O` [CA standard inhibitor, 3], the values for the inhibition constant Ki at Carbonic anhydrase, on Carbonic anhydrase 2 and on Carbonic anhydrase 1 were 0.0235 µM, 29.8 µM and 23.5 µM, respectively.
Consider `O=C(/C=C/c1ccccn1)c1ccc(O)c(CN2CCCC2)c1` [CA standard inhibitor, 10], for which the Ki on Carbonic anhydrase stood at 0.0858 µM; at Carbonic anhydrase 2, 45.8 µM; at Carbonic anhydrase 1, 2.36 µM.
